Laboratory results: US20250161290A1, “CO-CRYSTALS” (CereSpir Incorporated, priority 2021, published 2025)
Converted amounts (≈) assume the structure as drawn.

Tests used:
[1] = Coformer and CSP-1103 aqueous solubility assessment (qualitative); assay type: physicochemical; settings: water, thermodynamic from solid, 0.05 M aqueous concentration, gentle heating at 45° C. for 1 minute
Experimental: In a 1-dram vial, enough solvent was added to achieve a 0.05 M aqueous concentration along with some gentle heating at 45° C. for 1 minute to determine if the material would completely dissolve. After 24 hours, observations were made to determine if the material had remained in solution.

[2] = Consolidated qualitative solubility results (Tables 6 and 8); settings: for qualitative solvent solubility overlaid with cocrystallization screens' results: Table 8, numbers are molar concentrations pending investigation; for consolidated solubility result: Table 6
[3] = physchem
[4] = Coformer solubility assessment in organic solvents (qualitative); assay type: physicochemical; settings: gentle heating 45° C. if required; for solubility: organic solvent or mixture, thermodynamic from solid
Experimental: Coformer solubility assessment was then performed. The following solvents were selected under these solvent classifications, which represent typical manufacturing solvents and have good solvent-solvent miscibility: • 1. Aprotic Polar: acetone, ethyl acetate, acetonitrile; • 2. Hydrogen Bond Donor: ethanol, methanol; and • 3. Electron Pair Donor: MTBE instead of diethyl ether.
Approximately 0.1 mmol of the coformer was weighed out into a 1-dram vial, enough solvent was added to achieve a 0.2 M concentration, and if required, gentle heating was applied at 45° C. for about 1 minute. […] After 65 hours, observations were made to determine if the coformers had remained in solution.

[5] = XRPD of pre-exposed and post-exposed DVS samples (solid form stability); assay type: physicochemical; settings: two DVS sorption/desorption cycles, 5-95% RH, 25° C.
Experimental: X-ray powder diffraction analyses are obtained using a BRUKER D8 ADVANCE equipped with a Cu radiation source operated at 40 kV and 40 mA (λ=1.54 Å after Ni filtering) configured in a Bragg-Brentano geometry, equipped with a 90-position AUTO-CHANGER and a silicon strip detector (SSD160-2). A coupled theta-two theta continuous PSD (Position Sensitive Device) fast scan from 4 to 40 degrees are collected over approximately 32 minutes (0.5 sec/0.01° step). A sample is placed onto a polished zero-background silicon wafer by gently distributing onto the flat surface and is analyzed as a flat plate specimen.
(§1) Samples are analyzed using a TA Instruments Q5000SA gravimetric water sorption analyzer. The relative humidity (RH) is adjusted in 10% RH increments between 5-95% (±1% RH) at 25° C. (±0.5%° C.). The mass of a sample is continuously monitored and recorded with respect to RH and time with criteria for mass equilibrium set as a percent mass change <0.0100 for 5 minutes with a time limit of 720 minutes per step. The humidity is controlled by mixing dry and wet nitrogen streams with a total flow rate of 200 mL/min. The instrument control and data analysis are operated under Advantage for Q Series and Universal Analysis software, respectively.

[6] = Dynamic Vapor Sorption (DVS) water sorption/desorption; assay type: physicochemical
Experimental: as §1

[7] = MTBE, organic solvent or mixture
[8] = acetonitrile, organic solvent or mixture
[9] = ethanol, organic solvent or mixture
[10] = ethyl acetate, organic solvent or mixture

SMILES | solubility [1] | qualitative solvent solubility overlaid with cocrystallization screens' results ([2]; water (BP 100° C.)) | consolidated solubility result ([2]; water) | solubility [3, 7] | solubility [3, 8] | solubility [3, 9] | solubility [3, 10] | qualitative solvent solubility overlaid with cocrystallization screens' results ([2]; acetone (BP 56° C.)) | consolidated solubility result ([2]; acetone) | qualitative solvent solubility overlaid with cocrystallization screens' results ([2]; acetonitrile (BP 82° C.)) | consolidated solubility result ([2]; acetonitrile) | consolidated solubility result ([2]; ethanol) | consolidated solubility result ([2]; ethyl acetate) | qualitative solvent solubility overlaid with cocrystallization screens' results ([2]; methanol (BP 65° C.)) | consolidated solubility result ([2]; methanol) | solubility ([4]; acetone) | solubility ([4]; acetonitrile) | solubility ([4]; ethanol) | solubility ([4]; ethyl acetate) | solubility ([4]; methanol) | other results
N[C@@H](Cc1ccccc1)C(=O)O [phenylalanine] | > 50 mM | ✓ | ✓ | < 50 mM | < 50 mM | < 50 mM | < 50 mM |  |  |  |  |  |  |  |  |  |  |  |  |  | solubility ([3]; acetone, organic solvent or mixture): < 50 mM; solubility ([3]; methanol, organic solvent or mixture): < 50 mM
NC(=O)c1cccnc1 [nicotinamide] | > 50 mM | ✓ | ✓ | < 50 mM |  |  | 50 mM (≈ 6.11 mg/mL) |  | ✓ | ✓ | ✓ | ✓ | ✓ | ✓ | ✓ | > 200 mM | > 100 mM | > 200 mM | > 50 mM | > 200 mM | solid form change after DVS exposure (XRPD pre- vs post-exposed) [5]: no solid state form changes; Mass Change, Adsorption ([6]; DVS cycle 1 of 2, RH 5 to 95%): 1.11%; Mass Change, Desorption ([6]; DVS cycle 1 of 2, RH 95 to 5%): −1.11%; Mass Change, Adsorption ([6]; DVS cycle 2 of 2, RH 5 to 95%): 1.18%; Mass Change, Desorption ([6]; DVS cycle 2 of 2, RH 95 to 5%): −1.18%
O=C(O)/C=C/c1ccc(O)c(O)c1 [caffeic acid] | < 50 mM |  |  | < 50 mM | < 50 mM |  | < 50 mM | ✓ | ✓ |  |  | ✓ |  | ✓ | ✓ | > 100 mM |  | > 200 mM |  | > 200 mM | qualitative solvent solubility overlaid with cocrystallization screens' results ([2]; ethanol (BP 79° C.)): ✓; solubility ([3]; water): < 50 mM; solubility ([4]; MTBE): < 50 mM

The next lines start with results.

solubility [1] | qualitative solvent solubility overlaid with cocrystallization screens' results ([2]; water (BP 100° C.)) | consolidated solubility result ([2]; water) | solubility [3, 7] | solubility [3, 8] | solubility [3, 9] | solubility [3, 10] | qualitative solvent solubility overlaid with cocrystallization screens' results ([2]; acetone (BP 56° C.)) | consolidated solubility result ([2]; acetone) | qualitative solvent solubility overlaid with cocrystallization screens' results ([2]; acetonitrile (BP 82° C.)) | consolidated solubility result ([2]; acetonitrile) | consolidated solubility result ([2]; ethanol) | consolidated solubility result ([2]; ethyl acetate) | qualitative solvent solubility overlaid with cocrystallization screens' results ([2]; methanol (BP 65° C.)) | consolidated solubility result ([2]; methanol) | solubility ([4]; acetone) | solubility ([4]; acetonitrile) | solubility ([4]; ethanol) | solubility ([4]; ethyl acetate) | solubility ([4]; methanol) | SMILES | other results
< 50 mM |  |  |  |  | 100 mM (≈ 18.3 mg/mL) | 200 mM (≈ 36.6 mg/mL) | ✓ | ✓ | ✓ | ✓ | ✓ | ✓ | ✓ | ✓ | > 200 mM | > 200 mM | > 100 mM | > 200 mM | > 200 mM | O=C1NS(=O)(=O)c2ccccc21 [saccharin] | qualitative solvent solubility overlaid with cocrystallization screens' results ([2]; MTBE (BP 55° C.)): ✓; consolidated solubility result ([2]; MTBE): ✓; solubility ([3]; water): < 50 mM; qualitative solubility at 0.05 M ([4]; MTBE): Y✓
> 50 mM | ✓ | ✓ |  |  |  | 200 mM (≈ 30.4 mg/mL) | ✓ | ✓ | ✓ | ✓ | ✓ | ✓ | ✓ | ✓ | > 200 mM | > 200 mM | > 200 mM | > 200 mM | > 200 mM | COc1cc(C=O)ccc1O [vanillin] | qualitative solvent solubility overlaid with cocrystallization screens' results ([2]; MTBE (BP 55° C.)): ✓; consolidated solubility result ([2]; MTBE): ✓; qualitative solvent solubility overlaid with cocrystallization screens' results ([2]; ethanol (BP 79° C.)): ✓; solubility ([4]; MTBE): > 200 mM
